Measurements as given in patent US10577363B2, “Substituted piperidine compounds” (EPIZYME, INC., priority 2014, dated 2020).
Each block holds one compound with its values, some of them ahead of it.

Columns and labels:
[1] = target: T1, SMYD3 (Homo sapiens (Human), UniProt Q9H7B4); assay: SMYD3 biochemical assay (SPA, 3H-SAM methylation of MEKK2 protein substrate)
Summary of the method: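 Native full-length human SMYD3 (E. coli-expressed, tags removed) was preincubated with compound for 30 min at room temperature in 25 mM Tris-Cl pH 8.0, 1 mM TCEP, 0.005% BSG, 0.005% Tween 20. Reaction was started with 3H-SAM plus GST-MEKK2, quenched with 100 uM unlabeled SAM, and read by SPA scintillation counting.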

[2] = target: T1, SMYD3; assay: SMYD3 cell assay (Trimethyl-MEKK2 In-Cell Western in 293T/17 cells); assay type: cell-based
Summary of the method: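 In-Cell Western ratio of trimethyl-Lys260 MEKK2 to anti-flag signal; percent inhibition from DMSO and maximum-inhibition controls, IC50 by non-linear regression, triplicates.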

[3] = Table 2A, read-out: SMYD3 Biochem IC50
[4] = Table 2A, read-out: SMYD3 Cell IC50
[5] = read-out: SMYD3 Biochem IC50 (μM)*
[6] = 293T/17 cells, read-out: SMYD3 Cell IC50 (μM)*
[7] = average of n = 1 to n = 50, read-out: SMYD3 Biochem IC50
[8] = average of n = 1 to n = 50, read-out: SMYD3 Cell IC50
[9] = Table 1A, IC50 values are an average of n = 1 to n = 50, read-out: SMYD3 Biochem IC50
[10] = Table 1A, IC50 values are an average of n = 1 to n = 50, read-out: SMYD3 Cell IC50

T1 sequence (Q9H7B4 whole entry): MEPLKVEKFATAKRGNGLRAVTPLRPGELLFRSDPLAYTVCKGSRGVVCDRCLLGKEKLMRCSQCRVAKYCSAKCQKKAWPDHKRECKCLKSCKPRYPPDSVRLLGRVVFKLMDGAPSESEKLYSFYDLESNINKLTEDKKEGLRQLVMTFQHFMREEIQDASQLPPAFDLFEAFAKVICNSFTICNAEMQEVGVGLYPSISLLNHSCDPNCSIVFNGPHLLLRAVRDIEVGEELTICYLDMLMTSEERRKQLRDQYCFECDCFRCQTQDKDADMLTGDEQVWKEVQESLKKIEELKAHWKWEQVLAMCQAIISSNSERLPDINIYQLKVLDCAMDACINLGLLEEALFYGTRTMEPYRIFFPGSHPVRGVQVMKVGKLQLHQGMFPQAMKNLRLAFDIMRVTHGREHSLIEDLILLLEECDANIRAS

Structure (SMILES): O=C(N[C@H]1C[C@H]2CC[C@@H](C1)N2S(=O)(=O)[C@H]1CC[C@H](NCc2ccccc2)CC1)c1cc(C2CC2)on1 [compound 776, N-((1R,3R,5S)-8-(((1r,4R)-4-(benzylamino)cyclohexyl)sulfonyl)-8-azabicyclo[3.2.1]octan-3-yl)-5-cyclopropylisoxazole-3-carboxamide]
IC50 ([1]; read-out: SMYD3 Biochem IC50*): 0.00112 µM | IC50 ([2]; read-out: SMYD3 Cell IC50*): 0.0276 µM

Structure (SMILES): CCc1cc(C(=O)N[C@H]2C[C@H]3CC[C@@H](C2)N3S(=O)(=O)[C@H]2CC[C@H](NCCO)CC2)no1 [compound 788, 5-ethyl-N-((1R,3R,5S)-8-(((1r,4R)-4-((2-hydroxyethyl)amino)cyclohexyl)sulfonyl)-8-azabicyclo[3.2.1]octan-3-yl)isoxazole-3-carboxamide]
IC50 ([1]; read-out: SMYD3 Biochem IC50*): 0.00142 µM | IC50 ([2]; read-out: SMYD3 Cell IC50*): 0.0308 µM

Structure (SMILES): C[C@H]1C[C@@H](NC(=O)c2cc(C3CC3)on2)CCN1S(=O)(=O)N1C2CNCC1C2 [compound 828, N-((2S,4S)-1-((3,6-diazabicyclo[3.1.1]heptan-6-yl)sulfonyl)-2-methylpiperidin-4-yl)-5-cyclopropylisoxazole-3-carboxamide]
IC50 ([1]; read-out: SMYD3 Biochem IC50*): 0.00418 µM | IC50 ([2]; read-out: SMYD3 Cell IC50*): 0.15 µM

Structure (SMILES): C[C@@H](NC1CCN(S(=O)(=O)N2[C@@H]3CC[C@H]2C[C@@H](NC(=O)c2cc(C4CC4)on2)C3)CC1)c1ccc(F)cc1 [compound 944, 5-cyclopropyl-N-((1R,3R,5S)-8-((4-(((R)-1-(4-fluorophenyl)ethyl)amino)piperidin-1-yl)sulfonyl)-8-azabicyclo[3.2.1]octan-3-yl)isoxazole-3-carboxamide]
IC50 ([1]; read-out: SMYD3 Biochem IC50*): 0.0489 µM | IC50 ([2]; read-out: SMYD3 Cell IC50*): 0.683 µM

IC50 [1, 3]: 0.0107 µM | IC50 [2, 4]: 0.311 µM
Structure (SMILES): C[C@H]1C[C@@H](NC(=O)c2cc(C3CC3)on2)CCN1S(=O)(=O)CC1CCN(CCN2CCOCC2)CC1 [compound 587, 5-cyclopropyl-N-((2S,4S)-2-methyl-1-(((1-(2-morpholinoethyl)piperidin-4-yl)methyl)sulfonyl)piperidin-4-yl)isoxazole-3-carboxamide]

Structure (SMILES): NCCc1ccc(S(=O)(=O)N2[C@@H]3CC[C@H]2C[C@@H](NC(=O)c2cc(C4CC4)on2)C3)cc1 [compound 959, N-((1R,3r,5S)-8-((4-(2-aminoethyl)phenyl)sulfonyl)-8-azabicyclo[3.2.1]octan-3-yl)-5-cyclopropylisoxazole-3-carboxamide]
IC50 ([1]; read-out: SMYD3 Biochem IC50*): 0.0797 µM | IC50 ([2]; read-out: SMYD3 Cell IC50*): ≥ 10 µM

IC50 [1, 5]: 0.686 µM | IC50 [2, 6]: 4.11 µM
Structure (SMILES): C[C@H]1C[C@@H](NC(=O)c2cc(C3CC3)on2)CCN1S(=O)(=O)c1cccnc1 [compound 317, 5-cyclopropyl-N-((2S,4S)-2-methyl-1-(pyridin-3-ylsulfonyl)piperidin-4-yl)isoxazole-3-carboxamide]

IC50 [1, 7]: 0.0491 µM | IC50 [2, 8]: 4.63 µM
Structure (SMILES): C[C@H]1C[C@@H](NC(=O)c2cc(C3CC3)on2)CCN1S(=O)(=O)NCCN [compound 650, N-((2S,4S)-1-(N-(2-aminoethyl)sulfamoyl)-2-methylpiperidin-4-yl)-5-cyclopropylisoxazole-3-carboxamide]

IC50 [1, 7]: 0.541 µM | IC50 [2, 8]: 1.66 µM
Structure (SMILES): C[C@@H]1CN(S(=O)(=O)CCN2CCCC2)[C@H](C)C[C@@H]1NC(=O)c1cc(C2CC2)on1 [compound 746, 5-cyclopropyl-N-((2R,4S,5R)-2,5-dimethyl-1-((2-(pyrrolidin-1-yl)ethyl)sulfonyl)piperidin-4-yl)isoxazole-3-carboxamide]

IC50 [1, 3]: 0.0078 µM | IC50 [2, 4]: 0.0536 µM
Structure (SMILES): C[C@H]1CN(S(=O)(=O)N2CC[C@H](NC(=O)c3cc(C4CC4)on3)C[C@@H]2C)CCN1 [compound 572, 5-cyclopropyl-N-((2S,4S)-2-methyl-1-(((S)-3-methylpiperazin-1-yl)sulfonyl)piperidin-4-yl)isoxazole-3-carboxamide]

IC50 [1, 5]: 0.0113 µM | IC50 [2, 6]: 0.205 µM
Structure (SMILES): C[C@@H]1CN(C(=O)[C@H]2CC[C@H](N)CC2)[C@H](C)C[C@@H]1NC(=O)c1cc(C2CC2)on1 [Cpd. No. 420, N-((2R,4S,5R)-1-((1r,4R)-4-aminocyclohexanecarbonyl)-2,5-dimethylpiperidin-4-yl)-5-cyclopropylisoxazole-3-carboxamide]

Structure (SMILES): O=C1Cc2cc(S(=O)(=O)N3[C@@H]4CC[C@H]3C[C@H](NC(=O)c3cc(C5CC5)on3)C4)c(Cl)cc2N1 [compound 490, N-((1R,3s,5S)-8-((6-chloro-2-oxoindolin-5-yl)sulfonyl)-8-azabicyclo[3.2.1]octan-3-yl)-5-cyclopropylisoxazole-3-carboxamide]
IC50 [1, 9]: 9.23 µM | IC50 [2, 10]: > 10 µM

IC50 [1, 3]: 0.0026 µM | IC50 [2, 4]: 0.168 µM
Structure (SMILES): CC(C)N1CCC(CS(=O)(=O)N2CC[C@H](NC(=O)c3cc(C4CC4)on3)C[C@@H]2C)CC1 [compound 550, 5-cyclopropyl-N-((2S,4S)-1-(((1-isopropylpiperidin-4-yl)methyl)sulfonyl)-2-methylpiperidin-4-yl)isoxazole-3-carboxamide]

IC50 [1, 7]: 0.104 µM | IC50 [2, 8]: 5.58 µM
Structure (SMILES): C[C@@H]1C[C@H](NC(=O)c2cc(C3CC3)on2)CCN1C(=O)c1ccc(OCCN)cc1 [compound 671, N-((2R,4R)-1-(4-(2-aminoethoxy)benzoyl)-2-methylpiperidin-4-yl)-5-cyclopropylisoxazole-3-carboxamide]

Structure (SMILES): O=C(N[C@H]1C[C@H]2CC[C@@H](C1)N2S(=O)(=O)CC1CCN(Cc2ccccc2)CC1)c1cc(C2CC2)on1 [compound 536, N-((1R,3r,5S)-8-(((1-benzylpiperidin-4-yl)methyl)sulfonyl)-8-azabicyclo[3.2.1]octan-3-yl)-5-cyclopropylisoxazole-3-carboxamide]
IC50 [1, 3]: 0.0012 µM | IC50 [2, 4]: 0.058 µM

IC50 [1, 3]: 0.0042 µM | IC50 [2, 4]: 0.261 µM
Structure (SMILES): CC(C)CN1CCC(CS(=O)(=O)N2CC[C@H](NC(=O)c3cc(C4CC4)on3)C[C@@H]2C)CC1 [compound 557, 5-cyclopropyl-N-((2S,4S)-1-(((1-isobutylpiperidin-4-yl)methyl)sulfonyl)-2-methylpiperidin-4-yl)isoxazole-3-carboxamide]

Structure (SMILES): O=C(N[C@H]1CCN(S(=O)(=O)CCN2CCOCC2)[C@H](Cc2ccccc2)C1)c1cc(C2CC2)on1 [compound 499, N-((2R,4S)-2-benzyl-1-((2-morpholinoethyl)sulfonyl)piperidin-4-yl)-5-cyclopropylisoxazole-3-carboxamide]
IC50 [1, 9]: > 10 µM | IC50 [2, 10]: > 10 µM

Structure (SMILES): NCCS(=O)(=O)N1[C@@H]2CC[C@H]1C[C@H](NC(=O)c1cc(C3CC3)on1)C2 [compound 395, N-((1R,3s,5S)-8-((2-aminoethyl)sulfonyl)-8-azabicyclo[3.2.1]octan-3-yl)-5-cyclopropylisoxazole-3-carboxamide]
IC50 [1, 5]: 0.611 µM | IC50 [2, 6]: 3.16 µM

Structure (SMILES): O=C(N[C@H]1C[C@H]2CC[C@@H](C1)N2S(=O)(=O)CC1CCN(CCN2CCCCC2)CC1)c1cc(C2CC2)on1 [compound 549, 5-cyclopropyl-N-((1R,3r,5S)-8-(((1-(2-(piperidin-1-yl)ethyl)piperidin-4-yl)methyl)sulfonyl)-8-azabicyclo[3.2.1]octan-3-yl)isoxazole-3-carboxamide]
IC50 [1, 3]: 0.0025 µM | IC50 [2, 4]: 0.312 µM

IC50 [1, 3]: 0.0234 µM | IC50 [2, 4]: 0.223 µM
Structure (SMILES): C[C@H]1CN(S(=O)(=O)N2CCNCC2)CC[C@H]1NC(=O)c1cc(C2CC2)on1 [compound 621, 5-cyclopropyl-N-((3S,4R)-3-methyl-1-(piperazin-1-ylsulfonyl)piperidin-4-yl)isoxazole-3-carboxamide]

IC50 [1, 3]: 0.0043 µM | IC50 [2, 4]: 0.0719 µM
Structure (SMILES): C[C@H]1C[C@@H](NC(=O)c2cc(C3CC3)on2)CCN1S(=O)(=O)N1CCNCC1 [compound 558, 5-cyclopropyl-N-((2S,4S)-2-methyl-1-(piperazin-1-ylsulfonyl)piperidin-4-yl)isoxazole-3-carboxamide]

Structure (SMILES): COCCNCCCS(=O)(=O)N1[C@@H]2CC[C@H]1C[C@@H](NC(=O)c1cc(C3CC3)on1)C2 [compound 604, 5-cyclopropyl-N-((1R,3r,5S)-8-((3-((2-methoxyethyl)amino)propyl)sulfonyl)-8-azabicyclo[3.2.1]octan-3-yl)isoxazole-3-carboxamide]
IC50 [1, 3]: 0.0162 µM | IC50 [2, 4]: 0.2 µM

Structure (SMILES): COCCN1CCC(CS(=O)(=O)N2[C@@H]3CC[C@H]2C[C@@H](NC(=O)c2cc(C4CC4)on2)C3)CC1 [compound 556, 5-cyclopropyl-N-((1R,3r,5S)-8-(((1-(2-methoxyethyl)piperidin-4-yl)methyl)sulfonyl)-8-azabicyclo[3.2.1]octan-3-yl)isoxazole-3-carboxamide]
IC50 [1, 3]: 0.0039 µM | IC50 [2, 4]: 0.0557 µM

Structure (SMILES): CN1CCN(S(=O)(=O)N2[C@@H]3CC[C@H]2C[C@@H](NC(=O)c2cc(C4CC4)on2)C3)CC1CO (stereo partly drawn) [compound 684, 5-cyclopropyl-N-((1R,3r,5S)-8-((3-(hydroxymethyl)-4-methylpiperazin-1-yl)sulfonyl)-8-azabicyclo[3.2.1]octan-3-yl)isoxazole-3-carboxamide]
IC50 [1, 7]: 0.122 µM | IC50 [2, 8]: 0.923 µM

IC50 [1, 7]: 0.0468 µM | IC50 [2, 8]: 0.331 µM
Structure (SMILES): COCCCN1CCC(CS(=O)(=O)N2CC[C@@H](NC(=O)c3cc(C4CC4)on3)[C@@H](C)C2)CC1 [compound 648, 5-cyclopropyl-N-((3S,4R)-1-(((1-(3-methoxypropyl)piperidin-4-yl)methyl)sulfonyl)-3-methylpiperidin-4-yl)isoxazole-3-carboxamide]

Structure (SMILES): CN1CCC(N(C)S(=O)(=O)N2[C@@H]3CC[C@H]2C[C@@H](NC(=O)c2cc(C4CC4)on2)C3)CC1 [compound 606, 5-cyclopropyl-N-((1R,3r,5S)-8-(N-methyl-N-(1-methylpiperidin-4-yl)sulfamoyl)-8-azabicyclo[3.2.1]octan-3-yl)isoxazole-3-carboxamide]
IC50 [1, 3]: 0.0177 µM | IC50 [2, 4]: 0.235 µM
